Experimental findings from patent US20230236170A1, “REACTIVE AFFINITY PROBE-I[…] PLATFORM” (Jnana Therapeutics Inc., priority 2019, published 2023) are described below.

For test [1], the target named is T1, creatine transporter SLC6A8 (Homo sapiens, UniProt P48029).
T1 construct: host or cells: 'Cells', not specified
T1 sequence (P48029 1-635): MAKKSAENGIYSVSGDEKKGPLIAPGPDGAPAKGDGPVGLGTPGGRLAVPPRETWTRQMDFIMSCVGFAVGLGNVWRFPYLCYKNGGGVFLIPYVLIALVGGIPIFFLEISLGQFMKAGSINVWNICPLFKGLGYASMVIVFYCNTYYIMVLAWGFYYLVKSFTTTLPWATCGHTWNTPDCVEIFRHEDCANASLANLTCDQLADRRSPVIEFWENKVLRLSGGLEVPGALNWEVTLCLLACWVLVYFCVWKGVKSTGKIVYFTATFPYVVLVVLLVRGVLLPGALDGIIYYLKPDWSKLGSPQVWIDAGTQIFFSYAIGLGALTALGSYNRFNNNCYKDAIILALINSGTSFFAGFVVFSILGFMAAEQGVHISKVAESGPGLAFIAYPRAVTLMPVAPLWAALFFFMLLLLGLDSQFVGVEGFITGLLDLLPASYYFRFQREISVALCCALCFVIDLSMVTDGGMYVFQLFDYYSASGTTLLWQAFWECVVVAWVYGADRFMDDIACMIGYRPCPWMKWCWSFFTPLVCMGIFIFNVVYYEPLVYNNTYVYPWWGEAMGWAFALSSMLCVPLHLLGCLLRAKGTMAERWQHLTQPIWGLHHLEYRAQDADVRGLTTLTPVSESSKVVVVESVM
In words: creatine uptake assay after photo-crosslinking of reactive affinity probe. The format is cell-based. Conditions: 100 μM JN-1724 with or without 1 mM β-GPA, 30 minutes, 6 minutes 365 nm; FIG. 3. As for the experimental part: Cells were dosed for 30 minutes with 100 μM JN-1724 with or without 1 mM β-GPA and then irradiated for 6 minutes with 365 nm light. Cells were washed and the residual transport activity of SLC6A8 was measured via a creatine uptake assay.
RAPID identifies orthosteric and allosteric ligands as starting points or probes for target occupancy. The extent of covalent modification of the creatine transporter by a subset of the RAP library is highly reproducible (FIG. 2A). Screen of 2000 RAPs against the creatine transporter SLC6A8±the substrate analog guanidinoproprionic acid (GPA) identifies substrate-sensitive binder (FIG. 2B). Dots that fall off-diagonal are either substrate-competitive or substrate-cooperative. Two RAPs identified from the screen show dose-dependent inhibition or enhancement of covalent modification of the target as a function of the concentration of GPA (FIG. 2C).
A 30 minute 100 μM dose of JN-1724 followed by 6 minutes of cross-linking at 365 nm is enough to inhibit SLC6A8 transport of creatine to 5.7% of normal transport. […] Cells were lysed; biotin was clicked on; and biotinylated proteins were affinity-purified with streptavidin, digested with trypsin, and identified by tandem mass spectrometry with TMT quantification. […]

Another test has as its target T2, SLC6A8 (Homo sapiens, UniProt P48029).
T2 construct: host or cells: 'Cells', not specified
T2 sequence (P48029 1-635): T1 sequence (P48029 1-635)
Kind of test: target engagement by mass spectrometry of the adductome (streptavidin enrichment, TMT quantification). Conditions: co-dosing 1 mM β-GPA with 20 μM JN-1724, 30 minutes, 6 minutes 365 nm. The class given is binding. As for the experimental part: Cells were dosed for 30 minutes with 20 μM JN-1724 with or without 1 mM β-GPA and then irradiated for 6 minutes with 365 nm light. Cells were lysed; biotin was clicked on; and biotinylated proteins were affinity-purified with streptavidin, digested with trypsin, and identified by tandem mass spectrometry with TMT quantification. SLC6A8 (dot pointed at with arrow) was one of the proteins identified and co-dosing with 1 mM β-GPA reduced the level of enrichment by 80%.
A 30 minute 100 μM dose of JN-1724 followed by 6 minutes of cross-linking at 365 nm is enough to inhibit SLC6A8 transport of creatine to 5.7% of normal transport. To confirm target engagement by unbiased mass spectrometry of the adductome, Cells were dosed for 30 minutes with 20 μM JN-1724 with or without 1 mM β-GPA and then irradiated for 6 minutes with 365 nm light. Cells were lysed; biotin was clicked on; and biotinylated proteins were affinity-purified with streptavidin, digested with trypsin, and identified by tandem mass spectrometry with TMT quantification. SLC6A8 (dot pointed at with arrow) was one of the proteins identified and co-dosing with 1 mM β-GPA reduced the level of enrichment by 80% (FIG. 4).

SMILES strings stand for the structures.

In the case of `N=C(N)NCCC(=O)O` [β-GPA, β-guanidinoproprionic acid], the “effect on residual transport activity of SLC6A8” value in test [1] is given as “protection”. Moreover, the “reduction of the level of enrichment of SLC6A8” value at SLC6A8 is listed as 80%.
